# Ends that are not written are not given here.
# Key:
# [1] = Freeze/thaw stability of QC samples; assay type: in vitro ADME; conditions: QC in 70 g/L albumin in PBS, two cycles of freezing and thawing, LC-MS/MS
# Protocol: (§1) Stability of analytes in processed samples was determined at six independent days for a time span of 20 h in the autosampler. Deviations of standing samples to freshly measured samples were below 19% at the LLOQ and below 9% for other QC levels for each analyte, respectively (Additional file 4). Stability of analytes in biological matrix was determined by consecutive cycles of freezing and thawing as well as extended intervals at room temperature from thawing to processing (approximately one hour).
# (§2) Lyophilized authentic peptide standards were dissolved and diluted in a 70 g/L Albumin (from human serum, lyophilized, ≥ 99%, Sigma-Aldrich) in PBS (Sigma-Aldrich, St. Louis, MO, USA) solution. Internal standards C37^IS and C42^IS were dissolved in Milli-Q water (Millipore, Brussels, Belgium) containing 0.1% (v/v) formic acid (≥ 95%, Sigma-Aldrich) whereas C22^IS was only dissolved in ultrapure water. Mixtures of CAAPs used as calibration standards (calibrants) and quality control samples (QCs) were prepared as stock solution to a final concentration of 14 µM, respectively, (expect C40^SNP which was 5 µM) with subsequent serial dilutions. Calibrants and QCs were obtained from separate serial dilutions. Internal standard solution was prepared by adding equal volumes of each IS yielding a final concentration of 0.8 µM, respectively. All samples used for method development and validation were prepared and stored in 0.5 mL Protein LoBind Tubes (Eppendorf AG, Hamburg, Germany) in aliquots at − 80 °C until use.
# (§3) Working range of calibrants was defined based on CAAPs detected in samples from healthy donors (set to approximate lower limit of quantification) and in samples from septic patients (set to middle to high calibration range) which were re-analyzed from a previously work[46]. Nine calibrants were used in total ranging from 0.01 µM to 1.5 µM thereby covering more than two orders of magnitude in concentration. Linearity was assessed determining mean linear regression coefficients of each calibration curve from 0.01 to 1.5 µM in eight independent analytical runs. However, respective LLOQs (lower limit of quantification) and ULOQs (upper limit of quantification) were defined individually based on natural occurrence (see above) and results from validation parameter directly affected individual working ranges (carry-over, specificity). Four QC samples were prepared and measured in total (QC1, QC2, QC3, and QC4) to cover the entire range of calibration. However, three QCs for each of the respective analytes were used for method validation. Carry-over was determined measuring pure albumin solutions prepared without internal standards (but equal amount and concentration of water/formic acid solution as regular internal standard solution, “blank albumin sample”) directly after the respective highest calibrants. Peak areas were compared to peak areas from respective LLOQ samples (prepared with regular internal standard solution). Specificity was assessed using single compounds at respective highest calibrant level which were prepared and calculated as described for carry-over. The specificity of analytes towards internal standards was determined using pure albumin solution with internal standard (“zero albumin sample”). Accuracy and precision was determined by back-calculated concentrations from repeated measurements of the same QC samples during one analytical run (within-run repeatability, n = 5) and from freshly prepared samples during five independent analytical runs (between-run, n = 5). Due to the unavailability of analyte-free biological matrix, selectivity of analytes were assessed in pure albumin solution containing internal standards. Matrix effects were determined calculating recovery rates and precision of each compound in human blood samples. Direct comparison between different anticoagulants (EDTA, lithium-heparin) and serum was performed using whole blood from the same human donor. […]
# [2] = Benchtop stability of QC samples at room temperature; assay type: in vitro ADME; conditions: QC in 70 g/L albumin in PBS, 60 min. at room temperature, LC-MS/MS
# Protocol: as §1, §2, §3
# [3] = QC2 (0.025 µM; C40^SNP see Table 1)
# [4] = QC3 (0.3 µM; C40^SNP 0.1073 µM)
Sequence,"freeze/ thaw stability, accuracy (mean of n=3) [1, 3] [%]","freeze/ thaw stability, deviation from freshly processed QCs (mean of n=3) [1, 3] [%]","freeze/ thaw stability, accuracy (mean of n=3) [1, 4] [%]","freeze/ thaw stability, deviation from freshly processed QCs (mean of n=3) [1, 4] [%]","benchtop stability, accuracy (mean of n=3) [2, 3] [%]","benchtop stability, deviation from freshly processed QCs (mean of n=3) [2, 3] [%]","benchtop stability, accuracy (mean of n=3) [2, 4] [%]","benchtop stability, deviation from freshly processed QCs (mean of n=3) [2, 4] [%]"
AIPMSIPPEVKFNKPFVFLMIDQNTKSPLFMGKVVNPTQK [C40^SNP],103,-3,100,-3,104,-1,101,-2
AIPMSIPPEVKFNKPFVFLMIEQNTKSPLFMGKVVNPTQK [C40^WT],107,5,99,-4,109,6,101,-3
AMFLEAIPMSIPPEVKFNKPFVFLMIDQNTKSPLFMGKVVNPTQK [C45^SNP],109,-3,112,-2,114,1,112,-2
AMFLEAIPMSIPPEVKFNKPFVFLMIEQNTKSPLFMGKVVNPTQK [C45^WT],108,-6,117,-2,116,1,117,-3
FLEAIPMSIPPEVKFNKPFVFLMIDQNTKSPLFMGKVVNPTQK [C43^SNP],105,-4,107,-3,109,1,107,-3
FLEAIPMSIPPEVKFNKPFVFLMIEQNTKSPLFMGKVVNPTQK [C43^WT],103,-2,108,-2,110,4,109,-1
IPMSIPPEVKFNKPFVFLMIDQNTKSPLFMGKVVNPTQK [C39^SNP],105,-1,102,-2,102,-4,100,-4
IPMSIPPEVKFNKPFVFLMIEQNTKSPLFMGKVVNPTQK [C39^WT],107,8,101,2,106,8,98,-1
LEAIPMSIPPEVKFNKPFVFLMIDQNTKSPLFMGKVVNPTQK [C42^SNP],105,2,100,-4,104,1,101,-3
LEAIPMSIPPEVKFNKPFVFLMIEQNTKSPLFMGKVVNPTQK [C42^WT],104,2,100,-4,102,1,101,-3
LMIDQNTKSPLFMGKVVNPTQK [C22^SNP],103,2,97,0,104,2,100,3
LMIEQNTKSPLFMGKVVNPTQK [C22^WT],104,2,99,-2,103,1,102,1
MFLEAIPMSIPPEVKFNKPFVFLMIDQNTKSPLFMGKVVNPTQK [C44^SNP],109,-6,115,-2,114,-2,115,-2
MFLEAIPMSIPPEVKFNKPFVFLMIEQNTKSPLFMGKVVNPTQK [C44^WT],110,-4,115,-1,117,1,114,-2
MSIPPEVKFNKPFVFLMIDQNTKSPLFMGKVVNPTQK [C37^SNP],104,0,98,-1,103,0,99,-1
MSIPPEVKFNKPFVFLMIEQNTKSPLFMGKVVNPTQK [C37^WT],114,9,103,1,106,1,101,-1

# From paper PMC8907207, “Multiplex quantification of C-terminal alpha-1-antitrypsin peptides provides a novel approach for characterizing systemic inflammation” (Scientific Reports, 2022)
